From patent publication US9249129B2, “Morpholino substituted urea derivatives as mTOR inhibitors” (CELLZOME LIMITED, priority 2010, dated 2016)
pIC50: −log10 of the molar value.

What was measured:
Assay in all cases: kinobeads assay with mass spectrometry detection of kinases (kinase selectivity profile)
Type in all cases: binding
kinases (kinome) [1] = target: T1, kinases (kinome) (Homo sapiens, UniProt Q13555); details: CaMK2g (CAMK), IPI00908444
T1 construct: determined in kinobeads assays with mass spectrometry detection of kinases as described previously; endogenous in cells; host or cells: cell lysate
Text: (§1) The protein kinase complement of the human genome (the kinome) was described previously (Manning et al., 2002. Science 298(5600):1912-1934). Sequence accession numbers are defined by the International Protein Index (IPI) (Kersey et al., 2004. Proteomics 4(7):1985-1988).

kinases (kinome) [2] = target: T2, kinases (kinome) (Homo sapiens, UniProt Q07912); details: ACK (TK), IPI00552750
T2 construct: determined in kinobeads assays with mass spectrometry detection of kinases as described previously; endogenous in cells; host or cells: cell lysate
Text: as §1

kinases (kinome) [3] = target: T3, kinases (kinome) (Homo sapiens, UniProt Q12851); details: GCK (STE), IPI00149094
T3 construct: determined in kinobeads assays with mass spectrometry detection of kinases as described previously; endogenous in cells; host or cells: cell lysate
T3 sequence (Q12851 1-820): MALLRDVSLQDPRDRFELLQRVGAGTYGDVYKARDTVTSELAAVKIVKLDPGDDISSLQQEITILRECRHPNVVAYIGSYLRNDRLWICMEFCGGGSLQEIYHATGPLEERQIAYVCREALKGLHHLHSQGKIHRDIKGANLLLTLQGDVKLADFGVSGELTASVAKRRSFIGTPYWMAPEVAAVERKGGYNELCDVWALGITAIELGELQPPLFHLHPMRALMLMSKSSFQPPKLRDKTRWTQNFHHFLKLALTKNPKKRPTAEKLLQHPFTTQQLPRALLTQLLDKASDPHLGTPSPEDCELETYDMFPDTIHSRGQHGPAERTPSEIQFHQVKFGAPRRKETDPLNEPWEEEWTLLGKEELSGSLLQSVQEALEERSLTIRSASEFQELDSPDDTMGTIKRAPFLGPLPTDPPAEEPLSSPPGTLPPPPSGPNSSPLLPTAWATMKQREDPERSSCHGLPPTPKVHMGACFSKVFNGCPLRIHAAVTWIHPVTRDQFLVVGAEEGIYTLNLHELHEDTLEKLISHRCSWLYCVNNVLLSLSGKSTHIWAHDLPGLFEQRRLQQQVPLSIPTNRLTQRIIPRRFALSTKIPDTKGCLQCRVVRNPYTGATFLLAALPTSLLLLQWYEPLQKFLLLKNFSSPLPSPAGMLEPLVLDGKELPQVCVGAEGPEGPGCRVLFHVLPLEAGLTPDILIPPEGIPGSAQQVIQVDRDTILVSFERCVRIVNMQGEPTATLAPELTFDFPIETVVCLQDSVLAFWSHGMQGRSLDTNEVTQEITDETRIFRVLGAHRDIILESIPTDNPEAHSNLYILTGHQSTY
Text: as §1

kinases (kinome) [4] = target: T4, kinases (kinome) (Homo sapiens, UniProt Q9Y6R4); details: MAP3K4 (STE), IPI00386260
T4 construct: determined in kinobeads assays with mass spectrometry detection of kinases as described previously; endogenous in cells; host or cells: cell lysate
Text: as §1

kinases (kinome) [5] = target: T5, kinases (kinome) (Homo sapiens, UniProt P15056); details: BRAF (TKL), IPI00303797
T5 construct: determined in kinobeads assays with mass spectrometry detection of kinases as described previously; endogenous in cells; host or cells: cell lysate
Text: as §1

kinases (kinome) [6] = target: T6, kinases (kinome) (Homo sapiens, UniProt P49841); details: GSK3B (CMGC), IPI00216190
T6 construct: determined in kinobeads assays with mass spectrometry detection of kinases as described previously; endogenous in cells; host or cells: cell lysate
Text: as §1

kinases (kinome) [7] = target: T7, kinases (kinome) (Homo sapiens, UniProt P53667); details: LIMK1 (TKL), IPI00291702
T7 construct: determined in kinobeads assays with mass spectrometry detection of kinases as described previously; endogenous in cells; host or cells: cell lysate
Text: as §1

kinases (kinome) [8] = target: T8, kinases (kinome) (Homo sapiens, UniProt Q13043); details: MST1 (STE), IPI00011488
T8 construct: determined in kinobeads assays with mass spectrometry detection of kinases as described previously; endogenous in cells; host or cells: cell lysate
T8 sequence (Q13043 1-487): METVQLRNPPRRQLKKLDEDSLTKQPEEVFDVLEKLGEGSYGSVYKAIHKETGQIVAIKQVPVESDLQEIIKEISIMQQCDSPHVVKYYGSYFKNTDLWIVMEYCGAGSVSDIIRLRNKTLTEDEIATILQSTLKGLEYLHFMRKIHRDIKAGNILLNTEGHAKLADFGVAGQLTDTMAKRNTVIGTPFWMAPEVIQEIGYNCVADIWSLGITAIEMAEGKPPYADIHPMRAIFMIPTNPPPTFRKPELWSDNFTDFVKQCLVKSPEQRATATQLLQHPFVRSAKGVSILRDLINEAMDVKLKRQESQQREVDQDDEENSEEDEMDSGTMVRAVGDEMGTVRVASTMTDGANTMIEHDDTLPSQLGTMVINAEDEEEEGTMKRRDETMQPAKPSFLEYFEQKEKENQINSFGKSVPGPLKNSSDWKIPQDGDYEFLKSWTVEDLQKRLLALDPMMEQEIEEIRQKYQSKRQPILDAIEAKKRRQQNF
Text: as §1

kinases (kinome) [9] = target: T9, kinases (kinome) (Homo sapiens, UniProt P16591); details: FER (TK), IPI00029263
T9 construct: determined in kinobeads assays with mass spectrometry detection of kinases as described previously; endogenous in cells; host or cells: cell lysate
Text: as §1

kinases (kinome) [10] = target: T10, kinases (kinome) (Homo sapiens, UniProt Q16539); details: p38a (CMGC), IPI00221141
T10 construct: determined in kinobeads assays with mass spectrometry detection of kinases as described previously; endogenous in cells; host or cells: cell lysate
Text: as §1

kinases (kinome) [11] = target: T11, kinases (kinome) (Homo sapiens, UniProt P24941); details: CDK2 (CMGC), IPI00031681
T11 construct: determined in kinobeads assays with mass spectrometry detection of kinases as described previously; endogenous in cells; host or cells: cell lysate
Text: as §1

kinases (kinome) [12] = target: T12, kinases (kinome) (Homo sapiens, UniProt Q96S53); details: TESK2 (TKL), IPI00102677
T12 construct: determined in kinobeads assays with mass spectrometry detection of kinases as described previously; endogenous in cells; host or cells: cell lysate
Text: as §1

kinases (kinome) [13] = target: T13, kinases (kinome) (Homo sapiens, UniProt Q92918); details: HPK1 (STE), IPI00020258
T13 construct: determined in kinobeads assays with mass spectrometry detection of kinases as described previously; endogenous in cells; host or cells: cell lysate
Text: as §1

kinases (kinome) [14] = target: T14, kinases (kinome) (Homo sapiens, UniProt Q04771); details: ALK2 (TKL), IPI00029219
T14 construct: determined in kinobeads assays with mass spectrometry detection of kinases as described previously; endogenous in cells; host or cells: cell lysate
T14 sequence (Q04771 21-509): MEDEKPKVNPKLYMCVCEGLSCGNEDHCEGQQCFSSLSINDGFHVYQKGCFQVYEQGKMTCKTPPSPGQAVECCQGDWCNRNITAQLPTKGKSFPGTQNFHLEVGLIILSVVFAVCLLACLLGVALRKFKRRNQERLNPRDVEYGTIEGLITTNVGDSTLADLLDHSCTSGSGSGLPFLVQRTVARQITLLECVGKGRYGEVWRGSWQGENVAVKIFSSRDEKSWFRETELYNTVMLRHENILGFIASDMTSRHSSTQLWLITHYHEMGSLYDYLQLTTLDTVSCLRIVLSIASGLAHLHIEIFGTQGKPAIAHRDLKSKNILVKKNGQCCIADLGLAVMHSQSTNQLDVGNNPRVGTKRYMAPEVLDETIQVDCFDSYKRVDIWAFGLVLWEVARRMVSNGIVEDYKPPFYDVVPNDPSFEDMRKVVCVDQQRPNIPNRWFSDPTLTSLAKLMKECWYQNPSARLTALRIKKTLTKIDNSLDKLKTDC
Text: as §1

Measured: pIC50

T12 sequence (Q96S53 whole entry): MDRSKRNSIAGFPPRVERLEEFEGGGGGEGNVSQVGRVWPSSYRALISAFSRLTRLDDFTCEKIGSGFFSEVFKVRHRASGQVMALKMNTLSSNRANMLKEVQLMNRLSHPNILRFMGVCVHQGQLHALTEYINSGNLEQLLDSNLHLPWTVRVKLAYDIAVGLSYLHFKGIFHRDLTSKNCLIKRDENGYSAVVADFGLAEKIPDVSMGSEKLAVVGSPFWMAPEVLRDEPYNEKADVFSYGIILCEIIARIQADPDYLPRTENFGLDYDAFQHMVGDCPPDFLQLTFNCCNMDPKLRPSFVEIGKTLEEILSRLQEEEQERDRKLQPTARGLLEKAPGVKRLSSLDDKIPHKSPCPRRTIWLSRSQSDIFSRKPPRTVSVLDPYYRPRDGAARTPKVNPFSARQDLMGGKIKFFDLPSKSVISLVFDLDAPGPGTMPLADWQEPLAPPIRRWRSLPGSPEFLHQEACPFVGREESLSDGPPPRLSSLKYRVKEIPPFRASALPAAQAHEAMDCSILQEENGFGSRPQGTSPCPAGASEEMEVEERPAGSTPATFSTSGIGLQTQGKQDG
T13 sequence (Q92918 whole entry): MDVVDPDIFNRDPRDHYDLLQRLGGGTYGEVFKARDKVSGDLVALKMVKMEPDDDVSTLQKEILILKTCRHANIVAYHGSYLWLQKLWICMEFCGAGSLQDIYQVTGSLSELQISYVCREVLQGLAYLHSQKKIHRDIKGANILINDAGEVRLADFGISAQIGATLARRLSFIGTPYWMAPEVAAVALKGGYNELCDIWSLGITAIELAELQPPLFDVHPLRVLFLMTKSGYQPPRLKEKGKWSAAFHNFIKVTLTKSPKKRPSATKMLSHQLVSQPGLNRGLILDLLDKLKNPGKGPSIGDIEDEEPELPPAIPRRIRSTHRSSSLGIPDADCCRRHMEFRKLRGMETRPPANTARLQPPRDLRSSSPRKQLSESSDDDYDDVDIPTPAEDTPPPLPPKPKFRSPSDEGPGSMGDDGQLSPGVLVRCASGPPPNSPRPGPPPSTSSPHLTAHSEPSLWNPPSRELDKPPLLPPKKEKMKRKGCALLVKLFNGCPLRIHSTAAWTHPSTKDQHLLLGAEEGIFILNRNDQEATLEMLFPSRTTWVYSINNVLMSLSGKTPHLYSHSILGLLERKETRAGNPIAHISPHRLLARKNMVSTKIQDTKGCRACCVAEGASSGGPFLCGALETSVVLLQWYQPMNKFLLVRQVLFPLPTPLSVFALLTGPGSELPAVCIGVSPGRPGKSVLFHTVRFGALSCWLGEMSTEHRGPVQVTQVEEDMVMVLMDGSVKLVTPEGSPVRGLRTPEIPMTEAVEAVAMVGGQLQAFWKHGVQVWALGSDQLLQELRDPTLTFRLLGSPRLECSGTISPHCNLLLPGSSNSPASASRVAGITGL
T6 sequence (P49841 whole entry): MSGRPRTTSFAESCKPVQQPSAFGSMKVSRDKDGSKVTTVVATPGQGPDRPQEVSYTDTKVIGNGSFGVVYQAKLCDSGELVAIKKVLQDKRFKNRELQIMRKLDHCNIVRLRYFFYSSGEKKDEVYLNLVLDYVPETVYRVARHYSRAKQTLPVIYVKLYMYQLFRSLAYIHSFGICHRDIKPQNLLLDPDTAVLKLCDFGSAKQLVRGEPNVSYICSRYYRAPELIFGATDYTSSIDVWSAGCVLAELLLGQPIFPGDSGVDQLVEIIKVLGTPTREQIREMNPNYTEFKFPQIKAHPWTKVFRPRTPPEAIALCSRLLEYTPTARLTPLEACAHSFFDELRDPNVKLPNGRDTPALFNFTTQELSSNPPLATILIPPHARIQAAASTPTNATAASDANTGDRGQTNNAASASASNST
T7 sequence (P53667 whole entry): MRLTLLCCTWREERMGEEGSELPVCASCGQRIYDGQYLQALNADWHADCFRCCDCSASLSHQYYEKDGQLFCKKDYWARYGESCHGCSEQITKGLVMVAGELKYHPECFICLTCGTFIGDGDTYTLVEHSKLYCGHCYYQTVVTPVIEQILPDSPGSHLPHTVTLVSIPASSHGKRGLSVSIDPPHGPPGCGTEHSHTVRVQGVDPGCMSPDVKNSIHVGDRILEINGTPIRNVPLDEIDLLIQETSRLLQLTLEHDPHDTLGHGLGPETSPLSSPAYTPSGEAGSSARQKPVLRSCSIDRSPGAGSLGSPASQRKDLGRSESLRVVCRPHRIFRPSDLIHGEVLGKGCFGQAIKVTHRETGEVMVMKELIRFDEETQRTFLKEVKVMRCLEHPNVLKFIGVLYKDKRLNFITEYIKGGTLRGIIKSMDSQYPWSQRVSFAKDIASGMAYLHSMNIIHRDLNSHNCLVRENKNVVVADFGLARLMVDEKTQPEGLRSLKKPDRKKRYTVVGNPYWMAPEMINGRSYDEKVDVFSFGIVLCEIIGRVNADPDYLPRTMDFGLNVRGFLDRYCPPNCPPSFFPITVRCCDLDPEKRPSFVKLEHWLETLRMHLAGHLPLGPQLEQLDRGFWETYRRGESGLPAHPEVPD
T5 sequence (P15056 whole entry): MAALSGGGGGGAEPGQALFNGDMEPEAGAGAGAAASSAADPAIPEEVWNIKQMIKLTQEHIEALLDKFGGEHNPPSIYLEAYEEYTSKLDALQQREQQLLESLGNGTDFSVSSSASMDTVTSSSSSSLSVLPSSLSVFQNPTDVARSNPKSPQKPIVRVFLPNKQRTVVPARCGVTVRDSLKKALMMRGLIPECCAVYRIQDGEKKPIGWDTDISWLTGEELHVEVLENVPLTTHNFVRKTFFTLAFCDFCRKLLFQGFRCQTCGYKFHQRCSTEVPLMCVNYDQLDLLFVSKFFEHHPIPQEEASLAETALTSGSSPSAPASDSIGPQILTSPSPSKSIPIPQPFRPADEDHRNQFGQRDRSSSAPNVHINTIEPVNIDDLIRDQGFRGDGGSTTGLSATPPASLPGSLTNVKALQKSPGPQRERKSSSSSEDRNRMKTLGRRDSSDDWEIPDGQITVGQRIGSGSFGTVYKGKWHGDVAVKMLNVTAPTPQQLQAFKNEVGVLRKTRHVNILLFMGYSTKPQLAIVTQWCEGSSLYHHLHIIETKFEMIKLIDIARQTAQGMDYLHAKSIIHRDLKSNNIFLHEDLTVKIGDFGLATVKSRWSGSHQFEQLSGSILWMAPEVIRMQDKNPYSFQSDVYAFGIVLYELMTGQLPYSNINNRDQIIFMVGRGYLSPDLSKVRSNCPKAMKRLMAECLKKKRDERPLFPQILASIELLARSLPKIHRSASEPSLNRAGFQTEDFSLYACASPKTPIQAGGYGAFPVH
T1 sequence (Q13555 whole entry): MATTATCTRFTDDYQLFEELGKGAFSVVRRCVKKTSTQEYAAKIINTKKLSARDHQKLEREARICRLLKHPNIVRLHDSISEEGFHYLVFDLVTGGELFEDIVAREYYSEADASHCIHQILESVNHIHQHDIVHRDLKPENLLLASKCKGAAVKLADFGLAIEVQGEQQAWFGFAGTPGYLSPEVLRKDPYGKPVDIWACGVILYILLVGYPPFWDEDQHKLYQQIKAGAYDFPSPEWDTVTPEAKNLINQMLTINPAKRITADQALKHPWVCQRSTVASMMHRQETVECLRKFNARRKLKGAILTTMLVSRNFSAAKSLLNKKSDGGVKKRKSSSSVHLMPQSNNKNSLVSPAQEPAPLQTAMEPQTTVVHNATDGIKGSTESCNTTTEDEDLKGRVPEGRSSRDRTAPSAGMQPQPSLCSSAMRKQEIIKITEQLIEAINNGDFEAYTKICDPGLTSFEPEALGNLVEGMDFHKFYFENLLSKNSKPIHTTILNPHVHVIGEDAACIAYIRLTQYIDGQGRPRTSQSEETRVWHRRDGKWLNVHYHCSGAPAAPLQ
T10 sequence (Q16539 whole entry): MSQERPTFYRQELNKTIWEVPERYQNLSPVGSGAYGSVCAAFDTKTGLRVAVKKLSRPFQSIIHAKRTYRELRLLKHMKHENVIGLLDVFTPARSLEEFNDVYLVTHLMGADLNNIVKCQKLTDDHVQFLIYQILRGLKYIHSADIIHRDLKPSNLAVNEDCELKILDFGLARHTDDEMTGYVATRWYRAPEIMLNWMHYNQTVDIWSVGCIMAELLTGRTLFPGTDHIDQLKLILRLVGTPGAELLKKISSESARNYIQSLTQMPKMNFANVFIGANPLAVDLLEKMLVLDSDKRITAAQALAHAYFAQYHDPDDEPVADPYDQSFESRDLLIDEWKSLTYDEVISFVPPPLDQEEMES
T9 sequence (P16591 whole entry): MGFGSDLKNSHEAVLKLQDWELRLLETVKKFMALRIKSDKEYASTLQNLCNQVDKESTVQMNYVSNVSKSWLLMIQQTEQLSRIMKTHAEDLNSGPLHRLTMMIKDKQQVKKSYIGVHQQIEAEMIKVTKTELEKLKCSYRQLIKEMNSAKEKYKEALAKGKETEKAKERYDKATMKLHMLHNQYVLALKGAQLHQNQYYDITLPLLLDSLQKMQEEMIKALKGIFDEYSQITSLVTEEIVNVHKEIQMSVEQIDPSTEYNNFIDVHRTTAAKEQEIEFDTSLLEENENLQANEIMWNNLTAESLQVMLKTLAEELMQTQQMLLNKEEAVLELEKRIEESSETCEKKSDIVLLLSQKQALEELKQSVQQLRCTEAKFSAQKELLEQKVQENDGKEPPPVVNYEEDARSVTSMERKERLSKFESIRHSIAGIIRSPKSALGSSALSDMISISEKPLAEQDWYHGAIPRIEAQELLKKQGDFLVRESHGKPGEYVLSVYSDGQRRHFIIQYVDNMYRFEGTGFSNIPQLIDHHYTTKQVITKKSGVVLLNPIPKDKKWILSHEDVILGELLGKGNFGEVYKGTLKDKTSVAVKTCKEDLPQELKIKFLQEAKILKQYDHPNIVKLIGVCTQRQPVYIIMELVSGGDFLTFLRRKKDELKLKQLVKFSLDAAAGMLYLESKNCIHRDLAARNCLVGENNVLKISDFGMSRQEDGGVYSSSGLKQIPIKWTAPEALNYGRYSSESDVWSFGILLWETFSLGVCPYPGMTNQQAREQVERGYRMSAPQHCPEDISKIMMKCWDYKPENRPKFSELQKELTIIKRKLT

C[C@H]1COCCN1c1nc(-c2ccc(NC(=O)NC3CC3)cc2)cc(-c2ccccc2S(C)(=O)=O)n1 [Example 4, (S)-1-cyclopropyl-3-(4-(2-(3-methylmorpholino)-6-(2-(methylsulfonyl)phenyl)pyrimidin-4-yl)phenyl)urea]
< 5.00: all assays above

C[C@H]1COCCN1c1cc(-c2ccccc2S(C)(=O)=O)nc(-c2ccc(NC(=O)NC3CC3)cc2)n1 [Example 6, (S)-1-cyclopropyl-3-(4-(4-(3-methylmorpholino)-6-(2-(methylsulfonyl)phenyl)pyrimidin-2-yl)phenyl)urea]
< 5.00: all assays above

C[C@H]1COCCN1c1nc(-c2ccc(NC(=O)N[C@H]3CCC[C@@H]3O)cc2)cc(-c2cc(F)ccc2S(C)(=O)=O)n1 [Example 76, 1-(4-(6-(5-fluoro-2-(methylsulfonyl)phenyl)-2-((S)-3-methylmorpholino)pyrimidin-4-yl)phenyl)-3-((1S,2S)-2-hydroxycyclopentyl)urea]
< 5.00: all assays above

C[C@H]1COCCN1c1nc(-c2ccc(NC(=O)NC3CC3)cc2)cc(-c2cccnc2S(C)(=O)=O)n1 [Example 46, (S)-1-cyclopropyl-3-(4-(2-(3-methylmorpholino)-6-(2-(methylsulfonyl)pyridin-3-yl)pyrimidin-4-yl)phenyl)urea]
< 5.00: all assays above

C[C@H]1COCCN1c1cc(-c2ccccn2)nc(-c2ccc(NC(=O)NCCO)cc2)n1 [Example 43, (S)-1-(2-hydroxyethyl)-3-(4-(4-(3-methylmorpholino)-6-(pyridin-2-yl)pyrimidin-2-yl)phenyl)urea]
< 5.00: all assays above

C[C@H]1COCCN1c1nc(-c2ccc(NC(=O)NC3CC3)cc2)cc(-c2cc(F)ccc2S(C)(=O)=O)n1 [Example 40, (S)-1-cyclopropyl-3-(4-(6-(5-fluoro-2-(methylsulfonyl)phenyl)-2-(3-methylmorpholino)pyrimidin-4-yl)phenyl)urea]
< 5.00: all assays above

CCNC(=O)Nc1ccc(-c2cc(-c3ccccc3C#N)nc(N3CCOC[C@@H]3C)n2)cc1 [Example 8, (S)-1-(4-(6-(2-cyanophenyl)-2-(3-methylmorpholino)pyrimidin-4-yl)phenyl)-3-ethylurea]
< 5.00: all assays above
